Results taken from patent US7829575B2, “Methods for treating androgen receptor related disorders” (University of Cincinnati, priority 2006, dated 2010).
Where a SMILES comes first, the peptide text is derived from it. The star is where a group is joined. Cbz = O=C(OCc1ccccc1)*

Tests used:
LNCaP-ARR2-GFP cells = test: AR-regulated GFP expression in LNCaP-ARR2-GFP cells; type: cell-based; settings: for GFP expression (AR agonist activity): SMEM, absence of DHT, DL3 at 25 nM or 20 μM; for cell growth: LNCaP-ARR2-GFP cells
LNCaP cells [1] = test: Cell cycle distribution and apoptosis, flow cytometry (propidium staining) and western blotting; type: cell-based; settings: for increase of the portion of cells in G1 phase of cell cycle: regardless of presence or absence of DHT
Description: To further appreciate the effects of DL3 on cell growth, cell cycle distribution is determined using the flow cytometry analysis. After incubation of LNCaP cells for 24 hr in SMEM, the majority of cells are in the G1 phase of cell cycle. […] The cell cycle distribution is examined by the propidium staining method. […] Thus, DL3 induces GI arrest of prostate cancer cells in short term culture.

[2] = test system: LNCaP cells (mutant AR, H877A); test: LNCaP cell growth, MTT staining; type: cell-based
Excerpt: (§1) Viable cells are stained with MTT (3-(4,5-dimethylthiazol-2-yl)-2,5-diphenyltetrazolium bromide). *, **, and *** designate p<0.05, <0.01, and 0.001, respectively, compared with controls.

LNCaP cells [3] = test: Cellular PSA and AR protein, western blotting; type: cell-based
Description: In FIG. 6, cellular PSA and AR are analyzed by western blotting androgen-starved LNCaP cells.

LNCaP cells [4] = test: PSA and AR mRNA expression, RT-PCR; type: cell-based; settings: 24 hr; for expression of AR mRNA: 20 μM DL3 or Bical
Description: In FIG. 7 LNCaP or 22Rv1 cells (A) are treated for 24 hr with DL3 and total RNA is extracted and analyzed by real-time RT-PCR. […] PSA mRNA in LNCaP cells is approximately 20 fold higher than that in 22Rv1 cells (FIG. 7A).

LNCaP cells [5] = test: PSA secretion, ELISA of culture supernatant; type: cell-based; settings: for DHT-induced PSA production / PSA production under androgen-free conditions: 20 μM, 48 hr; for PSA production under androgen-free conditions: no DHT
Description: PSA in the culture supernatant is determined by using an enzyme-linked immunosorbent assay (ELISA) kit. PSA levels are normalized by cell density.

LNCaP cells [6] = test: PSA and AR mRNA expression, RT-PCR; type: cell-based; settings: 6 hr
LNCaP cells [7] = test: AR protein stability and hsp70/hsp90 expression, western blotting; type: cell-based
Description: Cell lysates are prepared and analyzed by western blotting. […] To further determine how DL3 downregulates AR, LNCaP cells are incubated for 24 hr with DL3 in the absence or presence of proteasome inhibitor MG132.
Hsp70 and hsp90 are key molecular chaperones in cells. Along with several co-chaperones, hsp70 and hsp90 play critical roles in folding and assembling AR to a high-affinity ligand binding conformation and in regulating AR activation that occurs following hormone binding. Therefore, the possibility of whether the downregulation of AR protein by DL3 is mediated by its effects on hsp70 or hsp90 expression is investigated.
Thus, the effects of DL3 on hsp70 expression are further investigated in several other prostate cancer cell lines, including LAPC-4 (wildtype AR), 22Rv1 (mutant AR), and AR-negative cell lines PC-3, DU-145, PWE1-NB14 (ATCC), and PWE1-NB26 (ATCC). […] In FIG. 10, LAPC-4 (in SMEM) and all other (in CMEM) cells are treated for 24 hr and analyzed by western blotting. LNCaP cells are transfected for 24 hr with hsp70 or its control vector, then treated for 24 hr.

human PSA gene promoter = test: PSA promoter luciferase reporter (pGL3-PSA-luc) in LNCaP cells; settings: 1 nM DHT, 24 hr
LNCaP-Nilut-R cells [8] = test: PSA secretion, ELISA of culture supernatant; type: cell-based; settings: 1 nM DHT, 10 μM, 48 hr (FIG. 5D)
Description: (§2) For the following discussion, see FIG. 5, where androgen-starved LNCaP, LNCaP-Flut-R, or LNCaP-Nilut-R cells are plated into 96-well plates at 2×10^4 cells/wells in SMEM and treated for 48 hr. PSA in the culture supernatant is determined by using an enzyme-linked immunosorbent assay (ELISA) kit. PSA levels are normalized by cell density. […] The DHT-induced production of PSA is reduced by approximately 50% in cells treated with 5 μM of DL3 (FIG. 5B). […] PSA production is elevated in LNCaP-Flut-R and LNCaP-Nilut-R cells compared with that in their parental cells (FIG. 5D).

LNCaP-Flut-R cells [9] = test: PSA secretion, ELISA of culture supernatant; type: cell-based; settings: 1 nM DHT, 10 μM, 48 hr (FIG. 5D)
Description: as §2

LNCaP-Flut-R cells [10] = test: Growth of Flut-refractory LNCaP cells, MTT; type: cell-based; settings: 10 μM, 4 days, MTT (FIG. 2F)
Excerpt: as §1

LNCaP-Nilut-R cells [11] = test: Growth of Nilut-refractory LNCaP cells, MTT; type: cell-based; settings: 10 μM, 4 days, MTT (FIG. 2F)
Excerpt: as §1

CC(O)(CS(=O)(=O)c1ccc(F)cc1)C(=O)Nc1ccc(C#N)c(C(F)(F)F)c1 (stereo not drawn) [Bical, Bicalutamide, reference compound]
GFP expression (AR agonist activity) (LNCaP-ARR2-GFP cells): not | increase of the portion of cells in G1 phase of cell cycle (LNCaP cells [1]; 24 hr): 15% | induction of apoptosis (LNCaP cells [1]; 24 hr, DL3 at 20 μM): does not induce apoptosis | survivin expression and caspase 3 cleavage (western blotting) (LNCaP cells [1]; data not shown): alter neither survivin expression nor caspase 3 cleavage | effect on DHT-stimulated growth of LNCaP cells [2]: inhibit DHT-stimulated growth of LNCaP cells in a dose-dependent manner | PSA protein expression under androgen-free culture conditions (LNCaP cells [3]; 20 μM, 24 hr): enhances PSA expression | expression of AR protein (LNCaP cells [3]; 20 μM, 24 hr (FIG. 6C)): moderately downregulated | DHT-induced PSA protein expression (LNCaP cells [3]; SMEM, 24 hr, Flut, Nilut, Bical at 20 μM): moderately reduced | DHT-stimulated PSA mRNA expression (LNCaP cells [4]; 20 μM, 1 nM DHT): only partially inhibits | basal level of PSA mRNA (LNCaP cells [4]; 20 μM, androgen-starved): no significant effects | expression of AR mRNA (LNCaP cells [4]; 1 nM DHT): partially downregulated | DHT-induced PSA production (LNCaP cells [5]; 1 nM DHT): reduce DHT-induced PSA production | PSA production under androgen-free conditions (LNCaP cells [5]): stimulates PSA production

C[C@]12CCC(=O)C[C@@H]1CC[C@@H]1[C@@H]2CC[C@]2(C)[C@@H](O)CC[C@@H]12 [DHT, dihydrotestosterone, reference compound]
AR mRNA expression (LNCaP cells [6]): not significantly altered | expression of hsp70 (LNCaP cells [7]; SMEM, 24 hr with DHT or CHX (FIG. 9B, lane 3 or 5 vs. lane 1)): also reduced | enhancement of PSA promoter activity (human PSA gene promoter): approximately 5 fold | expression of AR mRNA (LNCaP cells [4]; 1 nM DHT): partially downregulated | PSA production (LNCaP cells [5]): significantly elevated

CC(C)C(=O)Nc1ccc([N+](=O)[O-])c(C(F)(F)F)c1 [Flut, Flutamide]
increase of the portion of cells in G1 phase of cell cycle (LNCaP cells [1]; 24 hr): 15%

O=c1c(-c2ccc(O)cc2)coc2cc(O)cc(O)c12 [Genistein]
cell growth (LNCaP-ARR2-GFP cells): significantly inhibited cell growth | GFP expression (AR agonist activity) (LNCaP-ARR2-GFP cells): enhanced GFP expression

CC(C)C[C@@H](C=O)NC(=O)[C@H](CC(C)C)NC(=O)[C@H](CC(C)C)NC(=O)OCc1ccccc1 [MG132, reference compound] (Cbz-Leu-Leu-Leu-aldehyde)
DL3-induced reduction of AR (LNCaP cells [7]; 24 hr with DL3 in presence of MG132): reversed

CC1(C)NC(=O)N(c2ccc([N+](=O)[O-])c(C(F)(F)F)c2)C1=O [Nilut, Nilutamide, reference compound]
PSA production in LNCaP-Nilut-R cells (LNCaP-Nilut-R cells [8]): enhances PSA production | PSA production in LNCaP-Flut-R cells (LNCaP-Flut-R cells [9]): enhances PSA production | growth of LNCaP-Flut-R cells (LNCaP-Flut-R cells [10]): promotes growth | growth of LNCaP-Nilut-R cells (LNCaP-Nilut-R cells [11]): promotes growth | PSA production in parental LNCaP cells (LNCaP cells [5]; 1 nM DHT, 10 μM, 48 hr (FIG. 5D)): enhances PSA production | DHT-induced PSA production (LNCaP cells [5]; 1 nM DHT): not | PSA production under androgen-free conditions (LNCaP cells [5]): stimulates PSA production

O=c1c(O)c(-c2ccc(O)c(O)c2)oc2cc(O)cc(O)c12 [Querstin]
cell growth (LNCaP-ARR2-GFP cells): significantly inhibited cell growth | GFP expression (AR agonist activity) (LNCaP-ARR2-GFP cells): enhanced GFP expression

Oc1ccc(/C=C/c2cc(O)cc(O)c2)cc1 [Resveratol]
cell growth (LNCaP-ARR2-GFP cells): significantly inhibited cell growth | GFP expression (AR agonist activity) (LNCaP-ARR2-GFP cells): enhanced GFP expression
